Measurements: patent US12391672B2, “Solid forms comprising (S)-4-(4-(4-(((2-(2,6-dioxopiperidin-3-yl)-1-oxoisoindolin-4-yl)oxy)methyl)benzyl)piperazin-1-yl)-3-fluorobenzonitrile and salts thereof, and compositions comprising and methods of using the same” (Celgene Corporation, priority 2019, dated 2025)
Where “and” joins values, the source holds several entries; their conditions need not be identical. Equal values may be shown once. Entries after “also recorded” stand apart in the source; their conditions may differ.

Experiments:
Assay type in all cases: physicochemical
[1] = Solubility of polymorphic forms in physiologically relevant media and final pH
From the text: Solubility data of the several polymorphic forms of Compound 1 in physiologically relevant media and the final pH of these solutions are summarized in the following tables.

[2] = Dynamic vapor sorption / hygroscopicity
Procedure, shortened: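 Sample equilibrated at 50% r.h. on a microbalance, then one cycle at ±5% r.h. h^−1 spanning 0–95% r.h., with 5 h holds at 0% and 95% r.h. and 2 h holds at 50% r.h., run either desorption-first or sorption-first. Hygroscopicity classed from mass gain at 85% r.h. relative to initial mass.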

[3] = Solid state stability under accelerated storage conditions
Procedure, shortened: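 Solid forms stored at 60 °C and 60 °C/75% RH (Form A 1 week, Form B 2 weeks); Form K held 14 d at 40 °C, 40 °C/75% RH, 60 °C, 60 °C/75% RH and light, versus refrigerated/ambient. Assessed by DSC/TGA, appearance, HPLC purity, chiral HPLC (S-isomer area %) and XRPD post-DVS.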

[4] = Mechanical stressing (grinding, compression); conditions: compressed under 2000 psi for 1 minute
Method: Mechanical stressing experiment: the following table describes three experiments involving mechanical stressing of Form A and/or Form B of free base Compound 1 by grinding with a mortar and pestle.
Shear Sensitivity: Form K was compressed under 2000 psi for 1 minute and analyzed by XRPD.

[5] = Storage at controlled relative humidities (Form K / Form K′)
From the text: It was noticed that after Form K was dried, the XRPD peaks of Form K shifted to a higher value and the resulting XRPD pattern is called Form K′. To further understand the relationships between the two forms, free base Form K and Form K′ were placed on XRPD sample holders and stored in a closed Jars with saturated salt solutions for RH controls at ambient temperature, respectively. […] The XRPD diffractograms of the samples after 2-day storage are presented in FIG. 132 and FIG. 133, respectively. […] Since the peaks of Form K shifted to higher 2-theta value as Form K loses water molecules to Form K′, Form K and Form K′ are on a continuum.

[6] = Competitive slurry and slurry stability experiments; conditions: acetone/water, water contents 5% vol. and higher, room temperature and 45° C.
Method: Form B was obtained at room temperature while form C was obtained at 45° C. in acetone alone.
The HBr salt was largely insoluble in various buffers when 1 mg/mL slurries were prepared and the mother liquor concentration determined (by HPLC): <0.05 mg/mL in all buffers tested.

SMILES: N#Cc1ccc(N2CCN(Cc3ccc(COc4cccc5c4CN([C@H]4CCC(=O)NC4=O)C5=O)cc3)CC2)c(F)c1.O [Form K of a free base of Compound 1]
- Solubility ([1]; FaSSIF): 1 µg/mL
- Solubility ([1]; FeSSiF): 5 µg/mL
- Solubility ([1]; SGF with pepsin): 420 µg/mL
- Solubility ([1]; Water): <LOQ
- Solubility ([1]; pH 1 buffer HC1/NaC1): 133 µg/mL
- Solubility ([1]; pH 3 buffer (phosphate)): 90 µg/mL
- Solubility ([1]; pH 4 buffer (acetate)): 11 µg/mL
- Solubility ([1]; pH 5 buffer (acetate)): 1 µg/mL
- Final pH ([1]; solubility sample in FaSSIF): 6.33
- Final pH ([1]; solubility sample in FeSSiF): 5.02
- Final pH ([1]; solubility sample in SGF with pepsin): 1.47
- Final pH ([1]; solubility sample in Water): 6.71
- Final pH ([1]; solubility sample in pH 1 buffer HC1/NaC1): 1.20
- Final pH ([1]; solubility sample in pH 3 buffer (phosphate)): 3.09
- Final pH ([1]; solubility sample in pH 4 buffer (acetate)): 3.98
- Final pH ([1]; solubility sample in pH 5 buffer (acetate)): 5.01
- plateau in water uptake ([2]; DVS sorption, corresponding to ~1 mole of water): ~3.2 % w/w
- hygroscopicity ([2]; DVS, class by mass gain at 85% r.h.): slightly hygroscopic (slightly hygroscopic (mass increase of <2% but ≥0.2%))
- solid form after DVS cycle ([2]; after the DVS humidity cycle): stable with respect to application of a DVS cycle
- DVS mass increase ([2]; relative humidity from about 5% to about 95%): about 3.2%
- Physical stability (DSC, PXRD, TGA) ([3]; 14 d at 40° C., 40° C./75% RH, 60° C., 60° C./75% RH, light chamber): there does not appear to be any major change in the crystal form and water content
- physical and chemical stability ([3]; accelerated stability conditions): chemically and physically stable; also recorded: physically and chemically stable
- Solid state chiral stability ([3]; accelerated stability conditions, initial 97.1 area % S-isomer): no change in the chiral stability
- Solid state chemical stability (HPLC) ([3]; accelerated storage conditions, 14 d): no significant degradation was observed
- Solid state chemical stability (HPLC), light ([3]; exposed to light (1.2 million lux)): Minor degradation
- Shear Sensitivity (XRPD) [4]: remained as Form K
- form conversion on storage (XRPD) ([5]; 11% RH, ambient temperature): converts to K′
- critical water activity range for interconversion of Form K and Form K′ ([5]; aH2O): 0.11-0.22 and 0.11-0.17
- PXRD result after storage ([5]; stored at 17% r.h. and r.t. for 5.5 d): Form K
- competitive slurry of Form B, Form C and Form K [6]: most stable form
